US12077503B2, “Substituted cyclic amides and their use as herbicides” (FMC CORPORATION, priority 2015, dated 2024)

Tests used:
Type in all cases: in vivo
[1] = tested on: pigweed (Amaranthus retroflexus); assay: Test A preemergence; conditions: Amaranthus retroflexus, pre-emergence, 240 h, 0 to 100 scale where 0 is no effect and 100 is complete control, read-out: Pigweed plant response rating
[2] = tested on: barnyardgrass (Echinochloa crus-galli); assay: Test A preemergence; conditions: Echinochloa crus-galli, pre-emergence, 240 h, 0 to 100 scale where 0 is no effect and 100 is complete control, read-out: Barnyardgrass plant response rating
Procedure, shortened: (§1)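 Compounds were formulated in a non-phytotoxic solvent mixture with surfactant and applied as a preemergence directed soil spray after seeding, or sprayed postemergence over plants 2 to 10 cm tall at the one- to two-leaf stage. Evaluation after about 10 d compared treated with untreated controls, using a scale from 0 (no effect) to 100 (complete control).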

Kochia (Kochia scoparia) [3] = assay: Test A preemergence; conditions: Bassia scoparia, pre-emergence, 240 h, 0 to 100 scale where 0 is no effect and 100 is complete control, read-out: Kochia plant response rating
Procedure, shortened: as §1

[4] = tested on: giant foxtail (Setaria faberii); assay: Test A preemergence; conditions: Setaria faberi, pre-emergence, 240 h, 0 to 100 scale where 0 is no effect and 100 is complete control, read-out: Foxtail, Giant plant response rating
Procedure, shortened: as §1

[5] = tested on: ryegrass, Italian (Italian ryegrass, Lolium multiflorum); assay: Test A preemergence; conditions: Lolium multiflorum, pre-emergence, 240 h, 0 to 100 scale where 0 is no effect and 100 is complete control, read-out: Ryegrass, Italian plant response rating
Procedure, shortened: as §1

[6] = tested on: ragweed (common ragweed, Ambrosia elatior); assay: Test A preemergence; conditions: Ambrosia artemisiifolia, pre-emergence, 240 h, 0 to 100 scale where 0 is no effect and 100 is complete control, read-out: Ragweed plant response rating
Procedure, shortened: as §1

[7] = tested on: barnyardgrass (Echinochloa crus-galli); assay: Test B flooded paddy test; conditions: Echinochloa crus-galli, 250 g ai/ha, Flood; 0 to 100 scale where 0 is no effect and 100 is complete control; read-out: Barnyardgrass plant response rating
Procedure, shortened: (§2)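 Greenhouse paddy pots with 2-leaf stage plants received compound by direct addition to floodwater 3 cm deep, kept at that level. Scored visually at 13–15 d versus controls (0 no effect; 100 complete control).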

[8] = tested on: ducksalad (Heteranthera limosa); assay: Test B flooded paddy test; conditions: Heteranthera limosa, 250 g ai/ha, Flood; 0 to 100 scale where 0 is no effect and 100 is complete control; read-out: Ducksalad plant response rating
Procedure, shortened: as §2

[9] = tested on: sedge, umbrella (small-flower umbrella sedge, Cyperus difformis); assay: Test B flooded paddy test; conditions: Cyperus difformis, 250 g ai/ha, Flood; 0 to 100 scale where 0 is no effect and 100 is complete control; read-out: Sedge, Umbrella plant response rating
Procedure, shortened: as §2

rice (Oryra sativa) = assay: Test B flooded paddy test; conditions: Oryza sativa, 250 g ai/ha, Flood; 0 to 100 scale where 0 is no effect and 100 is complete control; read-out: Rice plant response rating
Procedure, shortened: as §2

[10] = tested on: pigweed (Amaranthus retroflexus); assay: Test A postemergence; conditions: Amaranthus retroflexus, post-emergence, 240 h, read-out: Pigweed plant response rating (0 to 100 scale)
Procedure, shortened: as §1

[11] = tested on: barnyardgrass (Echinochloa crus-galli); assay: Test A postemergence; conditions: Echinochloa crus-galli, post-emergence, 240 h, read-out: Barnyardgrass plant response rating (0 to 100 scale)
Procedure, shortened: as §1

corn (Zea mays) = assay: Test A postemergence; conditions: Zea mays, post-emergence, 240 h, read-out: Corn plant response rating (0 to 100 scale)
Procedure, shortened: as §1

Kochia (Kochia scoparia) [12] = assay: Test A postemergence; conditions: Bassia scoparia, post-emergence, 240 h, read-out: Kochia plant response rating (0 to 100 scale)
Procedure, shortened: as §1

[13] = tested on: giant foxtail (Setaria faberii); assay: Test A postemergence; conditions: Setaria faberi, post-emergence, 240 h, read-out: Foxtail, Giant plant response rating (0 to 100 scale)
Procedure, shortened: as §1

[14] = tested on: Galium (catchweed bedstraw, Galium aparine); assay: Test A postemergence; conditions: Galium, post-emergence, 240 h, read-out: Galium plant response rating (0 to 100 scale)
Procedure, shortened: as §1

[15] = tested on: blackgrass (Alopecurus myosuroides); assay: Test A postemergence; conditions: Alopecurus myosuroides, post-emergence, 240 h, read-out: Blackgrass plant response rating (0 to 100 scale)
Procedure, shortened: as §1

[16] = tested on: wheat (Triticum aestivum); assay: Test A postemergence; conditions: Triticum aestivum, post-emergence, 240 h, Postemergence, 31 g ai/ha; 0 is no effect, 100 is complete control; read-out: Wheat plant response rating (0 to 100 scale)
Procedure, shortened: as §1

[17] = tested on: ryegrass, Italian (Italian ryegrass, Lolium multiflorum); assay: Test A postemergence; conditions: Lolium multiflorum, post-emergence, 240 h, read-out: Ryegrass, Italian plant response rating (0 to 100 scale)
Procedure, shortened: as §1

[18] = tested on: ragweed (common ragweed, Ambrosia elatior); assay: Test A postemergence; conditions: Ambrosia artemisiifolia, post-emergence, 240 h, read-out: Ragweed plant response rating (0 to 100 scale)
Procedure, shortened: as §1

[19] = 125 g ai/ha, preemergence, visual injury rating, approximately 10 d
[20] = 125 g ai/ha, postemergence, visual injury vs untreated controls after approx. 10 d, 0 = no effect, 100 = complete control
[21] = Postemergence, 31 g ai/ha, 0 is no effect, 100 is complete control

O=C1NC[C@H](c2ccc(F)c(Oc3ccccc3)c2)[C@H]1C(=O)Nc1cccc(F)c1F [Compound 1258] showed a pest or weed control at 31 g/ha ([1]; 31 g ai/ha, Preemergence) of 0%, a pest or weed control at 125 g/ha [1, 19] of 0% and a pest or weed control at 31 g/ha ([2]; 31 g ai/ha, Preemergence) of 0%. For the same compound, the pest or weed control at 125 g/ha [2, 19] was 30%, the pest or weed control at 31 g/ha (Kochia (Kochia scoparia) [3]; 31 g ai/ha, Preemergence) was 0% and the pest or weed control at 125 g/ha (Kochia (Kochia scoparia) [3]; [19]) was 0%. It also gave a pest or weed control at 31 g/ha ([4]; 31 g ai/ha, Preemergence) of 40%, a pest or weed control at 125 g/ha [4, 19] of 70% and a pest or weed control at 31 g/ha ([5]; 31 g ai/ha, Preemergence) of 0%. It also gave a pest or weed control at 125 g/ha [5, 19] of 0%, a pest or weed control at 31 g/ha ([6]; 31 g ai/ha, Preemergence) of 0% and a pest or weed control at 125 g/ha [6, 19] of 0%. The pest or weed control at 250 g/ha [7] was 40%, the pest or weed control at 250 g/ha [8] was 0% and the pest or weed control at 250 g/ha [9] was 0%. It also gave a pest or weed control at 250 g/ha (rice (Oryra sativa)) of 0%, a pest or weed control at 125 g/ha [10, 20] of 30% and a pest or weed control at 31 g/ha [10, 21] of 0%. It also gave a pest or weed control at 125 g/ha [11, 20] of 70%, a pest or weed control at 31 g/ha [11, 21] of 30% and a plant injury at 125 g/ha (corn (Zea mays); [20]) of 40%. It also gave a plant injury at 31 g/ha (corn (Zea mays); [21]) of 0%, a pest or weed control at 125 g/ha (Kochia (Kochia scoparia) [12]; [20]) of 0% and a pest or weed control at 31 g/ha (Kochia (Kochia scoparia) [12]; [21]) of 0%. It also gave a pest or weed control at 125 g/ha [13, 20] of 60%, a pest or weed control at 31 g/ha [13, 21] of 30% and a pest or weed control at 125 g/ha [14, 20] of 80%. It also gave a pest or weed control at 31 g/ha [14, 21] of 70%, a pest or weed control at 125 g/ha [15, 20] of 0% and a pest or weed control at 31 g/ha [15, 21] of 0%. For the same compound, the plant injury at 31 g/ha [16] was 0%, the pest or weed control at 125 g/ha [17, 20] was 0% and the pest or weed control at 31 g/ha [17, 21] was 0%. It also gave a pest or weed control at 125 g/ha [18, 20] of 0% and a pest or weed control at 31 g/ha [18, 21] of 0%.
